Results: US20210121527A1, “METHODS OF TREATING MINIMAL RESIDUAL CANCER” (ICAHN SCHOOL OF MEDICINE AT MOUNT SINAI, priority 2018, published 2021)

What was measured:
HER2^+ tumors = experiment: Growth of overt tumors in MMTV-HER2 females; assay type: in vivo, mouse
Experimental: Mice, tumor growth, and tissue processing: The FVB/N-Tg (MMTVneu) mouse strain was obtained from Jackson Laboratories (Sacramento, Calif.). […] Before being used in any experiment, females underwent one round of pregnancy and at least two weeks of no lactation after weaning. Females between 24-32 weeks of age were injected intraperitoneally with vehicle (90% corn oil, 10% ethanol) or LY4 (50 mpk) daily, for two weeks. For the combination treatment, females 24-32 weeks of age were treated daily by oral gavage with Abemaciclib (50 mpk) for 4 weeks before starting the treatment described earlier with LY4. Tumor volumes were measured using the formula (Dxd^2)/2, where D is the longest and d is the shortest diameter. For CTC count, animals were anesthetized and whole blood was extracted by cardiac puncture. Mammary glands, lungs, and tumors were collected and fixed in 10% buffered formalin overnight before paraffin embedding. The bone marrow from the two lower limbs was flushed with a 26 G needle and further processed by Ficoll density gradient centrifugation. For CTC as well as for DTC detection in bone marrow, tissues were depleted of mature hematopoietic cells by anti-mouse antibody-labeled magnetic bead separation (Miltenyi Biotec, San Diego, Calif.) before fixation in formalin for 20 minutes at 4° C.
IHC and IF: IHC and IF from paraffin-embedded sections was performed as previously described (Avivar-Valderas et al., “Regulation of Autophagy during ECM Detachment is Linked to a Selective Inhibition of mTORC1 by PERK,” Oncogene 32(41):4932-40 (2013), which is hereby incorporated by reference in its entirety). Briefly, slides were dewaxed and serially rehydrated. Heat-induced antigen retrieval was performed in either citrate buffer (10 mM, pH 6), EDTA buffer (1 mM, pH 8), or Tris/EDTA (pH9). Slides were further permeabilized in 0.1% Triton™-X100, blocked and incubated with primary antibody overnight at 4° C. at 1:50-1:200 dilution. For IHC, an additional step of endogenous peroxidase and avidin/biotin quenching was performed before primary antibody incubation. […] Next, slides were incubated in secondary antibodies (Life Technologies, Norwalk, Conn.) and mounted. For IHC, sections were processed using VectaStain ABC Elite kit (Vector Laboratories, Bulingame, Calif.) and DAB Substrate kit for peroxidase labelling (Vector Laboratories) and mounted in VectaMount medium (Vector laboratories). For IF, sections were mounted in ProLong Gold Antifade aqueous medium (Thermo Fisher, Waltham, Mass.).
TUNEL in situ cell death detection: Apoptosis levels were evaluated using the In situ Cell Death Detection kit, AP (Roche, Basel, Switzerland). Paraffin sections from tumors were dewaxed, rehydrated, and permeabilized in phosphate buffered saline (PBS) 0.2% TRITON™-X100 for 8 minutes. Then, slides were washed and blocked in 20% normal goat serum for 1 hour at 37° C. The TUNEL reaction mixture was then added and let go for 1 hour at 37° C. The reaction was stopped by incubating with Buffer I(0.3 M Sodium chloride, 30 mM Sodium citrate). Next, the slides were incubated with anti-fluorescein-AP antibody for 30 minutes at 37° C. After three washes in Tris buffered saline (TBS), slides were incubated in alkaline phosphatase substrate in 0.1% TWEEN™-20 for 20 min at room temperature. Finally, the slides were mounted using aqueous mounting medium. The percentage of TUNEL positive cells was calculated using Image J software (NIH).

[1] = tested on: HER2 in MCF10A-HER2 cells; experiment: HER2 signaling Western blot and surface biotinylation/endocytosis assays; assay type: cell-based, human; conditions: 2 μM
Text: Immunoblot analysis: Cells were lysed in RIPA buffer and protein analyzed by immunoblotting as described previously (Ranganathan et al., “Functional Coupling of p38-Induced Up-Regulation of BiP and Activation of RNA-Dependent Protein Kinase-Like Endoplasmic Reticulum Kinase to Drug Resistance of Dormant Carcinoma Cells,” Cancer Res. 66:1702-1711 (2006), which is hereby incorporated by reference in its entirety). Membranes were blotted using the additional following antibodies: P-PERK (T982) (Tenkerian et al., “mTORC2 Balances AKT Activation and eIF2alpha Serine 51 Phosphorylation to Promote Survival Under Stress,” Mol. Cancer Res. 13:1377-1388 (2015), which is hereby incorporated by reference in its entirety), PERK (Santa Cruz, Dallas, Tex.), P-EGFR(Y1148), EGFR, P-AKT(S473), P-S6 (S235/236) (Cell signaling, Danvers, Mass.), GAPDH (Millipore, Darmstadt, Germany), and β-Tubulin (Abcam, Cambridge, Mass.). For induction of ER stress, MCF10A-HER2 cells were plated in low adhesion plates for 24 hours before collection.
Cell surface biotinylation and endocytosis assay: For cell surface biotinylation, Pierce cell surface protein isolation kit was used following manufacturer's instructions with minor changes. Briefly, MCF10A-HER2 cells were serum- and EGF-starved and treated+/−LY4 for 24 hours before being stimulated with +/−EGF (100 ng/ml) for 20′. Then, cells were washed with ice-cold PBS and surface proteins biotinylated for 30 minutes at 4° C. After quenching, cells were harvested and lysed using RIPA buffer. Protein lysates were incubated with NeutrAvidin agarose beads and the bound proteins were released by incubation with SDS-PAGE sample buffer containing DTT (50 mM). For endocytosis assays (Cihil et al., “The Cell-Based L-Glutathione Protection Assays to Study Endocytosis and Recycling of Plasma Membrane Proteins,” J. Vis. Erp. e50867 (2013), which is hereby incorporated by reference in its entirety), cells were treated similarly but before treatment with EGF cell surface proteins were biotinylated. After 20 minute incubation+/−EGF (100 ng/ml) at 37° C. […]

Cc1cc(NC(=O)[C@H](O)c2cc(F)cc(F)c2)ccc1-c1cnc(N)c(C(=O)NC(C)C)c1 [LY4, 2-amino-5-[4-[[(2R)-2-(3,5-difluorophenyl)-2-hydroxy-acetyl]amino]-2-methyl-phenyl]-N-isopropyl-pyridine-3-carboxamide]
tumors remaining in complete cytostasis (HER2^+ tumors; 2-week treatment, 7% in controls): 43% | tumors showing regression (HER2^+ tumors; 2-week window treatment): 25% | P-HER2 levels in tumors (IHC score) (HER2^+ tumors; 50 mpk, two weeks): significantly lower levels of P-HER2 than control animals | TUNEL staining of tumor sections (DNA fragmentation) (HER2^+ tumors; 50 mpk, two weeks): significant increase in the levels of DNA fragmentation | median final tumor volume (HER2^+ tumors; 50 mpk, two weeks): significant decrease in median final tumor volume | proliferation in tumors (P-histone H3 IHC) (HER2^+ tumors; 50 mpk, two weeks): not different between vehicle- and LY4-treated tumors | tumor growth rate (HER2^+ tumors; 50 mpk, two weeks): reduced growth rate | P-HER2 and total HER2 on the cell surface (surface biotinylation) [1]: decreased the amount of P-HER2 and total HER2 in the cell surface | endocytosed phospho-HER2 and total HER2 (reversible surface biotinylation) [1]: increasing endocytosed phospho-HER2 and total HER2 | P-EGFR, P-HER2, P-AKT, P-S6, P-ERK1/2 levels (Western blot) ([1]; starved cells +/- EGF 100 ng/ml, 15 minutes): decreased both the basal and EGF-induced levels of P-EGFR and P-HER2
